Assay results reported in PubChem BioAssay AID2060893 (Molecular Pharmacology Branch, DTP, NCI, 2025).
pIC50: −log10 of the molar value.

System: K86415-001-R-J1-PDC complex spheroids, viability
Test: Anticancer human tumor K86415-001-R-J1-PDC patient-derived lung adenocarcinoma cell line growth inhibition [RAS]
Conditions: for pIC50: curve of first compound; for viability, T/C: stronger effect = lower value
Summary of the method: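 Multi-cell-type spheroids: tumor cells plus HUVEC endothelial cells and mesenchymal stem cells. RAS-pathway inhibitors were combined with targeted agents, each dosed in half-log steps down from clinical Cmax, or from 10 microM when Cmax was unknown.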

[1] = second compound 0.000949 µM, first compound 0.000949 µM
[2] = second compound 0.000949 µM, first compound 0.003 µM
[3] = second compound 0.000949 µM, first compound 0.00949 µM
[4] = second compound 0.000949 µM, first compound 0.03 µM
[5] = second compound 0.000949 µM, first compound 0.0949 µM
[6] = second compound 0.000949 µM, first compound 0.3 µM
[7] = second compound 0.003 µM, first compound 0.000949 µM
[8] = second compound 0.003 µM, first compound 0.003 µM
[9] = second compound 0.003 µM, first compound 0.00949 µM
[10] = second compound 0.003 µM, first compound 0.03 µM
[11] = second compound 0.003 µM, first compound 0.0949 µM
[12] = second compound 0.003 µM, first compound 0.3 µM
[13] = second compound 0.00949 µM, first compound 0.000949 µM
[14] = second compound 0.00949 µM, first compound 0.003 µM
[15] = second compound 0.00949 µM, first compound 0.00949 µM
[16] = second compound 0.00949 µM, first compound 0.03 µM
[17] = second compound 0.00949 µM, first compound 0.0949 µM
[18] = second compound 0.00949 µM, first compound 0.3 µM
[19] = second compound 0.03 µM, first compound 0.000949 µM
[20] = second compound 0.03 µM, first compound 0.003 µM
[21] = second compound 0.03 µM, first compound 0.00949 µM
[22] = second compound 0.03 µM, first compound 0.03 µM
[23] = second compound 0.03 µM, first compound 0.0949 µM
[24] = second compound 0.03 µM, first compound 0.3 µM
[25] = second compound 0.0949 µM, first compound 0.000949 µM
[26] = second compound 0.0949 µM, first compound 0.003 µM
[27] = second compound 0.0949 µM, first compound 0.00949 µM
[28] = second compound 0.0949 µM, first compound 0.03 µM
[29] = second compound 0.0949 µM, first compound 0.0949 µM
[30] = second compound 0.0949 µM, first compound 0.3 µM
[31] = second compound 0.3 µM, first compound 0.000949 µM
[32] = second compound 0.3 µM, first compound 0.003 µM
[33] = second compound 0.3 µM, first compound 0.00949 µM
[34] = second compound 0.3 µM, first compound 0.03 µM
[35] = second compound 0.3 µM, first compound 0.0949 µM
[36] = second compound 0.3 µM, first compound 0.3 µM
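Also: spheroids exposed to agents for seven days before readout.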

C=CC(=O)N1CCN(c2nc(OCC3CCCN3C)nc3c(F)c(-c4nc(N)cc(C)c4C(F)(F)F)c(Cl)cc23)C(C)C1 (stereo unspecified) + CCn1c(-c2cccnc2C(C)OC)c2c3cc(ccc31)N1CCOC(CC(NC(=O)C(C(C)C)N(C)C(=O)C3(F)CCN(C(=O)C#CC(C)(C)N(C)C)CC3)C(=O)N3CCCC(N3)C(=O)OCC(C)(C)C2)C1 showed a pIC50 (second compound 0.000949 µM) greater than 8.50, a pIC50 (second compound 0.003 µM) greater than 8.50 and a pIC50 (second compound 0.00949 µM) greater than 8.50. It also gave a pIC50 (second compound 0.03 µM) greater than 8.50, a pIC50 (second compound 0.0949 µM) greater than 8.50 and a pIC50 (second compound 0.3 µM) greater than 8.50. The viability, T/C (second compound 0.000949 µM, first compound 0.00316 µM) was 13.8%, the viability, T/C (second compound 0.000949 µM, first compound 0.01 µM) was 12.1% and the viability, T/C (second compound 0.000949 µM, first compound 0.0316 µM) was 9.94%. It also gave a viability, T/C (second compound 0.000949 µM, first compound 0.1 µM) of 9.02%, a viability, T/C (second compound 0.000949 µM, first compound 0.316 µM) of 11.8% and a viability, T/C (second compound 0.000949 µM, first compound 1 µM) of 9.5%. It also gave a viability, T/C (second compound 0.003 µM, first compound 0.00316 µM) of 13.5%, a viability, T/C (second compound 0.003 µM, first compound 0.01 µM) of 12.9% and a viability, T/C (second compound 0.003 µM, first compound 0.0316 µM) of 12.2%. For the same molecule, the viability, T/C (second compound 0.003 µM, first compound 0.1 µM) was 11.1%, the viability, T/C (second compound 0.003 µM, first compound 0.316 µM) was 12% and the viability, T/C (second compound 0.003 µM, first compound 1 µM) was 9.09%. It also gave a viability, T/C (second compound 0.00949 µM, first compound 0.00316 µM) of 13.7%, a viability, T/C (second compound 0.00949 µM, first compound 0.01 µM) of 10.7% and a viability, T/C (second compound 0.00949 µM, first compound 0.0316 µM) of 14.6%. For the same molecule, the viability, T/C (second compound 0.00949 µM, first compound 0.1 µM) was 10.1%, the viability, T/C (second compound 0.00949 µM, first compound 0.316 µM) was 10.7% and the viability, T/C (second compound 0.00949 µM, first compound 1 µM) was 11.4%. The viability, T/C (second compound 0.03 µM, first compound 0.00316 µM) was 13%, the viability, T/C (second compound 0.03 µM, first compound 0.01 µM) was 13.4% and the viability, T/C (second compound 0.03 µM, first compound 0.0316 µM) was 11.1%. The viability, T/C (second compound 0.03 µM, first compound 0.1 µM) was 11.8%, the viability, T/C (second compound 0.03 µM, first compound 0.316 µM) was 11.7% and the viability, T/C (second compound 0.03 µM, first compound 1 µM) was 16.2%. It also gave a viability, T/C (second compound 0.0949 µM, first compound 0.00316 µM) of 11%, a viability, T/C (second compound 0.0949 µM, first compound 0.01 µM) of 10.7% and a viability, T/C (second compound 0.0949 µM, first compound 0.0316 µM) of 13.2%. The viability, T/C (second compound 0.0949 µM, first compound 0.1 µM) was 11.2%, the viability, T/C (second compound 0.0949 µM, first compound 0.316 µM) was 12.8% and the viability, T/C (second compound 0.0949 µM, first compound 1 µM) was 15.8%. For the same molecule, the viability, T/C (second compound 0.3 µM, first compound 0.00316 µM) was 12%, the viability, T/C (second compound 0.3 µM, first compound 0.01 µM) was 12.6% and the viability, T/C (second compound 0.3 µM, first compound 0.0316 µM) was 14.4%. The viability, T/C (second compound 0.3 µM, first compound 0.1 µM) was 11.2%, the viability, T/C (second compound 0.3 µM, first compound 0.316 µM) was 14% and the viability, T/C (second compound 0.3 µM, first compound 1 µM) was 14.1%.
CC1(C)CCC(Nc2ncc(C(F)(F)F)c(-c3c[nH]c4c(P(C)(C)=O)c(C#N)ccc34)n2)CN1 (stereo unspecified) + CCn1c(-c2cccnc2C(C)OC)c2c3cc(ccc31)N1CCOC(CC(NC(=O)C(C(C)C)N(C)C(=O)C3(F)CCN(C(=O)C#CC(C)(C)N(C)C)CC3)C(=O)N3CCCC(N3)C(=O)OCC(C)(C)C2)C1 gave a pIC50 (second compound 0.000949 µM) greater than 9.02, a pIC50 (second compound 0.003 µM) greater than 9.02 and a pIC50 (second compound 0.00949 µM) greater than 9.02. The pIC50 (second compound 0.03 µM) was greater than 9.02, the pIC50 (second compound 0.0949 µM) was greater than 9.02 and the pIC50 (second compound 0.3 µM) was greater than 9.02. It also gave a viability, T/C [1] of 46.4%, a viability, T/C [2] of 48.8% and a viability, T/C [3] of 35.2%. It also gave a viability, T/C [4] of 57.9%, a viability, T/C [5] of 54.9% and a viability, T/C [6] of 41.8%. It also gave a viability, T/C [7] of 15.9%, a viability, T/C [8] of 14.2% and a viability, T/C [9] of 17.2%. The viability, T/C [10] was 19.4%, the viability, T/C [11] was 22.6% and the viability, T/C [12] was 20.4%. It also gave a viability, T/C [13] of 13.5%, a viability, T/C [14] of 12.7% and a viability, T/C [15] of 16.5%. It also gave a viability, T/C [16] of 20.3%, a viability, T/C [17] of 20.1% and a viability, T/C [18] of 21.1%. For the same molecule, the viability, T/C [19] was 13.3%, the viability, T/C [20] was 16.3% and the viability, T/C [21] was 17%. The viability, T/C [22] was 13.9%, the viability, T/C [23] was 14.8% and the viability, T/C [24] was 21.1%. It also gave a viability, T/C [25] of 12.1%, a viability, T/C [26] of 17.4% and a viability, T/C [27] of 17.6%. It also gave a viability, T/C [28] of 19.6%, a viability, T/C [29] of 15.4% and a viability, T/C [30] of 20.1%. The viability, T/C [31] was 15.7%, the viability, T/C [32] was 15.3% and the viability, T/C [33] was 16.7%. It also gave a viability, T/C [34] of 14.6%, a viability, T/C [35] of 18.2% and a viability, T/C [36] of 20.9%.
Molecule CCc1c2c(nc3ccc(O)cc13)-c1cc3c(c(=O)n1C2)COC(=O)[C@]3(O)CC + CCn1c(-c2cccnc2C(C)OC)c2c3cc(ccc31)N1CCOC(CC(NC(=O)C(C(C)C)N(C)C(=O)C3(F)CCN(C(=O)C#CC(C)(C)N(C)C)CC3)C(=O)N3CCCC(N3)C(=O)OCC(C)(C)C2)C1 has a pIC50 (second compound 0.000949 µM) greater than 9.02, a pIC50 (second compound 0.003 µM) greater than 9.02 and a pIC50 (second compound 0.00949 µM) greater than 9.02. The pIC50 (second compound 0.03 µM) was greater than 9.02, the pIC50 (second compound 0.0949 µM) was greater than 9.02 and the pIC50 (second compound 0.3 µM) was greater than 9.02. It also gave a viability, T/C [1] of 36.7%, a viability, T/C [2] of 25.1% and a viability, T/C [3] of 10.1%. It also gave a viability, T/C [4] of 12.2%, a viability, T/C [5] of 9.29% and a viability, T/C [6] of 3.47%. For the same molecule, the viability, T/C [7] was 11.9%, the viability, T/C [8] was 13.2% and the viability, T/C [9] was 9.42%. The viability, T/C [10] was 10.6%, the viability, T/C [11] was 6.9% and the viability, T/C [12] was 2.68%. The viability, T/C [13] was 11.8%, the viability, T/C [14] was 10.5% and the viability, T/C [15] was 10.8%. For the same molecule, the viability, T/C [16] was 9.69%, the viability, T/C [17] was 7.47% and the viability, T/C [18] was 3.83%. It also gave a viability, T/C [19] of 10.7%, a viability, T/C [20] of 11.6% and a viability, T/C [21] of 8.61%. It also gave a viability, T/C [22] of 10.2%, a viability, T/C [23] of 6.38% and a viability, T/C [24] of 2.86%. It also gave a viability, T/C [25] of 10.8%, a viability, T/C [26] of 9.6% and a viability, T/C [27] of 10.9%. For the same molecule, the viability, T/C [28] was 9.82%, the viability, T/C [29] was 3.93% and the viability, T/C [30] was 2.05%. The viability, T/C [31] was 13.9%, the viability, T/C [32] was 9.91% and the viability, T/C [33] was 7.1%. The viability, T/C [34] was 6.45%, the viability, T/C [35] was 3.04% and the viability, T/C [36] was 2.24%.
